Counter-ions that a name gives are not always drawn.
Biological target: T1, human holo-transferrin (hTf) (Homo sapiens, UniProt P02787)
T1 construct: gene TF; commercial holo (iron-loaded) glycoprotein, Sigma-Aldrich; mature full length, 679 residues, ~79 kDa, N-lobe and C-lobe, no tag stated
Test: intrinsic fluorescence quenching titration
Type: binding
Conditions: double-log, excitation 280 nm, 50 mM potassium phosphate pH 7.4, 298 K
Excerpt: intrinsic fluorescence quenching titration on human holo-transferrin (hTf)

T1 sequence (P02787 20-698): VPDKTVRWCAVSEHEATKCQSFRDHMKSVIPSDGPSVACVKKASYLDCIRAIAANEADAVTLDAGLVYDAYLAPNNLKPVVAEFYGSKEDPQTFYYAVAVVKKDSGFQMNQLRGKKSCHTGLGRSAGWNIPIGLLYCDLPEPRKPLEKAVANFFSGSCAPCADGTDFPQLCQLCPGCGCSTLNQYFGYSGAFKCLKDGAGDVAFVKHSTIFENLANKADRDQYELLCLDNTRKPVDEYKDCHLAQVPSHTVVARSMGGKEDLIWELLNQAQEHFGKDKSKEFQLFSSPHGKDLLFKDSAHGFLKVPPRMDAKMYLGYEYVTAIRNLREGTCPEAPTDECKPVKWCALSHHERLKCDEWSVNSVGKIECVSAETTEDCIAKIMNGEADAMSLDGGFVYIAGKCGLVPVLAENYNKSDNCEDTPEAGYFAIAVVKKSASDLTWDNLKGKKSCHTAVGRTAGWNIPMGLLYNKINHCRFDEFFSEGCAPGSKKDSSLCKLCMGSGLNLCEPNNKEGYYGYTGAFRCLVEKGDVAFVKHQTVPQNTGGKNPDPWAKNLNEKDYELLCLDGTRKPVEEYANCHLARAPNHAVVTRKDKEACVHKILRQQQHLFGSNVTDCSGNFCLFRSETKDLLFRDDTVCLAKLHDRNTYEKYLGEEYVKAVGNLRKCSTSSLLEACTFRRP

Row | Compound | K b ( L mol^-1) / λ ex = 280 nM (one site, binary system without ropinirole) | K b ( L mol^-1) / λ ex = 280 nM (stronger of two sites, binary system without aspirin)
1 | CC(=O)Oc1ccccc1C(=O)O [aspirin, 2-acetoxy benzoic acid] | (7.83 ± 0.02) × 10^3 L mol^-1 | 
2 | CCCN(CCC)CCc1cccc2c1CC(=O)N2 [ropinirole hydrochloride, 4-[2-(dipropylamino)ethyl]-1,3-dihydro-2H-indol-2-one monohydro-chloride] |  | (1.69 ± 0.03) × 10^6 L mol^-1
